Data on 10 compounds can be found in ChEMBL document CHEMBL1201862, “PubChem BioAssay data set” (2004).

Experiment in all cases: growth of human tumour cells (NCI), 48 h
Assay [1] deals with CCRF-CEM.
Assay [2] has as its system HCT-116.
In assay [3] the test system is HOP-92.
In assay [4] the test system is HT-29.
Assay [5] deals with LOX IMVI.
The test system of assay [6] is MCF7.
Assay [7] relates to MDA-MB-231.
Assay [8] deals with MDA-N.
In assay [9] the test system is MOLT-4.
Assay [10] has as its system NCI-H226.
Assay [11] concerns NCI-H23.
Assay [12] has as its system NCI-H460.
Assay [13] relates to OVCAR-3.
Assay [14] deals with SK-MEL-2.
Assay [15] relates to SN12C.
The test system of assay [16] is SNB-19.
For assay [17], the system named is SR.
Assay [18] deals with TK-10.
Assay [19] has as its system UACC-257.

The structures appear in SMILES notation.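 Step 1: Grow cells in 96-well plates. Step 2: Expose to compound for 48 hours at 5 concentrations. Step 3: Interpolate endpoints linearly; if unreached, use highest concentration. GI50 marks 50% less growth.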 Activity calls are given as the source filed them. Cut-off read from the data, not from the text of the source: active = GI50 up to about 1.1 µM and inactive = higher.

Take `CCOC(=O)C(Cl)(NC(=O)c1ccc(F)cc1)C(F)(F)F` (stereo not given): the GI50 in [1], in assay [2], in [3], in assay [4], in assay [5] and in [6] was > 100 µM (inactive) in each case. In addition, the GI50 in assay [7], in assay [8], in [9], in assay [10], in assay [11] and in assay [12] was > 100 µM (inactive) in each case. In addition, the GI50 in assay [13], in assay [14], in [15], in [16], in assay [17] and in assay [18] was > 100 µM (inactive) throughout. Moreover, in [19], the GI50 is > 100 µM (inactive).
As for `C/C=C1/CN2CCc3c([nH]c4ccccc34)[C@@H]2C[C@@H]1Cc1nccc2c1[nH]c1cc(O)ccc12`, the GI50 in assay [1] is 2.9 µM (inactive); in assay [2], 1.67 µM (inactive); in assay [3] it was 6.38 µM (inactive); in [4] it was 1.87 µM (inactive); in [5] it was 2.77 µM (inactive); in assay [6], 2.62 µM (inactive). For the same compound, the GI50 in assay [7] was 1.64 µM (inactive); in assay [8], 2.01 µM (inactive); in assay [9], 2.58 µM (inactive); in assay [10] it was 3.85 µM (inactive); in assay [11], 2.1 µM (inactive); in [12] it was 16.5 µM (inactive). Moreover, the GI50 was 2.39 µM (inactive) in assay [13]; 2.05 µM (inactive) in assay [14]; 1.66 µM (inactive) in [15]; 2.26 µM (inactive) in assay [16]; 11.7 µM (inactive) in [17]; 1.95 µM (inactive) in [18]. The GI50 in assay [19] was 2.41 µM (inactive).
Consider `CC(=O)Oc1ccc2cc(-c3ccc(OC(C)=O)c(OC(C)=O)c3)c(=O)oc2c1`, for which the GI50 in [1] was 42.1 µM (inactive); in assay [2], 60.3 µM (inactive); in [3], 43.4 µM (inactive); in [4] it was > 100 µM (inactive); in [5] it was > 100 µM (inactive); in assay [6], > 100 µM (inactive). The GI50 in [7] is > 100 µM (inactive); in assay [8] it was > 100 µM (inactive); in [9], > 100 µM (inactive); in assay [10], > 100 µM (inactive); in assay [11] it was > 100 µM (inactive); in assay [12], 85.9 µM (inactive). The GI50 in assay [13] was 18.4 µM (inactive); in assay [14], > 100 µM (inactive); in assay [15] it was > 100 µM (inactive); in assay [16] it was > 100 µM (inactive); in assay [17] it was 87.7 µM (inactive); in assay [18], 26.5 µM (inactive). Also, the GI50 in assay [19] was 97.9 µM (inactive).
Turning to `CC(=O)C(C(c1ccccc1)N1CCOCC1)N1CCOCC1` (stereo not given), the GI50 is 16.9 µM (inactive) in assay [1]; > 100 µM (inactive) in assay [2]; > 100 µM (inactive) in assay [3]; > 100 µM (inactive) in assay [4]; > 100 µM (inactive) in [5]; > 100 µM (inactive) in assay [6]. In addition, the GI50 is > 100 µM (inactive) in assay [7]; > 100 µM (inactive) in assay [8]; > 100 µM (inactive) in assay [9]; > 100 µM (inactive) in [10]; > 100 µM (inactive) in [11]; 19.2 µM (inactive) in assay [12]. Besides, the GI50 in [13] is > 100 µM (inactive); in [14] it was > 100 µM (inactive); in assay [15], > 100 µM (inactive); in assay [16], > 100 µM (inactive); in assay [17] it was 83.9 µM (inactive); in assay [18] it was 22.6 µM (inactive). The GI50 in assay [19] is 18.5 µM (inactive).
With `COC(=O)C1=C(C(=O)OC)C(C(=O)c2ccccc2)N2N=C(c3ccc(Cl)cc3)C=CC12` (stereo not given), the GI50 in [1] was 13.6 µM (inactive); in assay [2], 3.48 µM (inactive); in [3], > 100 µM (inactive); in [4], 9.59 µM (inactive); in assay [5], 18.7 µM (inactive); in assay [6] it was 75.7 µM (inactive). The GI50 was > 100 µM (inactive) in assay [7]; 15.3 µM (inactive) in [8]; 5.69 µM (inactive) in [9]; 13.9 µM (inactive) in assay [10]; 26.1 µM (inactive) in assay [11]; 37.1 µM (inactive) in assay [12]. Moreover, the GI50 was > 100 µM (inactive) in [13]; > 100 µM (inactive) in assay [14]; 85.5 µM (inactive) in [15]; > 100 µM (inactive) in assay [16]; > 100 µM (inactive) in assay [17]; 2.85 µM (inactive) in assay [18]. In assay [19], the GI50 was > 100 µM (inactive).
Take `COc1cc(C(C[N+](=O)[O-])SC(C)=O)ccc1OCc1ccccc1` (stereo not given): the GI50 is 1.18 µM (inactive) in assay [1]; 4.13 µM (inactive) in [2]; 18.9 µM (inactive) in assay [3]; 2.4 µM (inactive) in [4]; 1.43 µM (inactive) in [5]; 2.38 µM (inactive) in assay [6]. The GI50 in assay [7] is 4.93 µM (inactive); in [8] it was 2.88 µM (inactive); in [9] it was 2.25 µM (inactive); in assay [10], 7.91 µM (inactive); in assay [11], 4.79 µM (inactive); in assay [12], 8.95 µM (inactive). Further, the GI50 is 3.01 µM (inactive) in [13]; 7.59 µM (inactive) in [14]; 4.17 µM (inactive) in assay [15]; 8.24 µM (inactive) in assay [16]; 1.79 µM (inactive) in assay [17]; 6.35 µM (inactive) in assay [18]. For the same compound, the GI50 in assay [19] was 5.02 µM (inactive).
With `CC(C)(C)NC(NC(C)(C)C)=C(/C=C(/Cl)[N+](=O)[O-])[N+](=O)[O-]`, the GI50 was 67.8 µM (inactive) in [1]; 34.3 µM (inactive) in [2]; > 100 µM (inactive) in assay [3]; 41.8 µM (inactive) in assay [4]; > 100 µM (inactive) in assay [5]; 4.46 µM (inactive) in assay [6]. The GI50 in assay [7] was > 100 µM (inactive); in assay [8] it was 26.2 µM (inactive); in assay [9], 48.3 µM (inactive); in assay [10], > 100 µM (inactive); in assay [11], 42.7 µM (inactive); in assay [12], 52.2 µM (inactive). The GI50 in assay [13] was 20 µM (inactive); in assay [14] it was > 100 µM (inactive); in assay [15] it was > 100 µM (inactive); in [16], > 100 µM (inactive); in assay [17], 32.6 µM (inactive); in [18], > 100 µM (inactive). Further, the GI50 in assay [19] is 94 µM (inactive).
As to `O=C(c1ccccc1)C(Nc1ccc2ccccc2c1)c1ccccc1` (stereo not given), the GI50 in assay [1] was 13.7 µM (inactive); in assay [2] it was 15.7 µM (inactive); in assay [3] it was 41.7 µM (inactive); in assay [4], 24.5 µM (inactive); in assay [5] it was 35.3 µM (inactive); in [6], 12.7 µM (inactive). The GI50 is 28.8 µM (inactive) in assay [7]; 7.05 µM (inactive) in assay [8]; 8.41 µM (inactive) in assay [9]; > 60.7 µM (inactive) in assay [10]; 24.4 µM (inactive) in assay [11]; 21.2 µM (inactive) in [12]. Also, the GI50 in [13] was 13.9 µM (inactive); in assay [14], 14.2 µM (inactive); in assay [15] it was 26.9 µM (inactive); in assay [16], 34.7 µM (inactive); in assay [17], 7.89 µM (inactive); in assay [18], 29 µM (inactive). For the same compound, in assay [19], the GI50 is 15.3 µM (inactive).
In the case of `COc1cc(C2c3cc4c(cc3OC(NNC(N)=O)C2C)OCO4)cc(OC)c1O` (stereo not given), the GI50 in [1] is 2.5 µM (inactive); in assay [2], 1.58 µM (inactive); in assay [3] it was 15.3 µM (inactive); in assay [4] it was 3.13 µM (inactive); in [5], 4.06 µM (inactive); in [6], 1.64 µM (inactive). In addition, the GI50 is 5.05 µM (inactive) in [7]; 0.274 µM (active) in assay [8]; 2.58 µM (inactive) in assay [9]; 6.65 µM (inactive) in assay [10]; 4.92 µM (inactive) in assay [11]; 2.12 µM (inactive) in assay [12]. The GI50 was 1.03 µM (active) in [13]; 6.18 µM (inactive) in [14]; 4.9 µM (inactive) in assay [15]; 7.29 µM (inactive) in [16]; 1.12 µM (active) in assay [17]; 13.8 µM (inactive) in [18]. Further, the GI50 in [19] is 3.19 µM (inactive).
For the compound `C/C(=N\NC(=S)Nc1ccc(Cl)cc1)c1nc2cccnc2[nH]1`, the GI50 was 0.492 µM (active) in [1]; 1.53 µM (inactive) in [2]; 1.27 µM (inactive) in [3]; 2.56 µM (inactive) in assay [4]; 1.23 µM (inactive) in assay [5]; 2.69 µM (inactive) in assay [6]. The GI50 in assay [7] is 6.04 µM (inactive); in assay [8], 5.13 µM (inactive); in assay [9], 0.687 µM (active); in assay [10] it was 1.77 µM (inactive); in assay [11], 1.89 µM (inactive); in assay [12], 0.665 µM (active). In addition, the GI50 in assay [13] is 0.352 µM (active); in assay [14], 10.5 µM (inactive); in assay [15], 2.81 µM (inactive); in assay [16], 2.08 µM (inactive); in assay [17], 0.92 µM (active); in assay [18], 0.309 µM (active). In addition, the GI50 in assay [19] is 2.28 µM (inactive).
